According to patent US7505101B2, “Liquid crystal display” (Fujifilm Corporation, priority 2004, dated 2009):

Assay: octanol-water partition coefficient (Log P value)
Format: physicochemical
Details: octanol-water distribution coefficient
From the text: In the preparation of the cellulose acylate film according to the invention, among the aforementioned compound for suppressing an alignment of cellulose acylate in the film along the in-plane direction and the direction of film thickness thereby sufficiently reducing Rth, preferred is a compound having an octanol-water distribution coefficient (log P value) within a range of from 0 to 7. […] Also, a compound having a log P value or 0 or more has a lower hydrophilicity and thus can suppress deterioration of the water resistance of the cellulose acylate film. The log P value is more preferably within a range of from 1 to 6, and particularly preferably 1.5 to 5. The octanol-water distribution coefficient (log P value) can be measured by a flask […] method described in Japan Industrial Standards (JIS) Z7260-107 (2000). The octanol-water distribution coefficient (log P value) may also be estimated, instead of an actual measurement, by a calculational chemical method or an empirical method. […]

SMILES	logP
Cc1ccc(S(=O)(=O)Nc2ccccc2)cc1 [A-19]	2.9
CCCCCCCCOc1ccc(C(=O)c2ccccc2)c(O)c1 [UV-102]	5.6
